The record followed here is patent publication US9833425B2, “Gentisic acid is used to improve systemic hemodynamics, hepatic mitochondrial function and lactate acidemia in patients with septic shock” (priority 2015, dated 2017).

“Also recorded” adds a separate entry of the source. Like-named read-outs stand apart in the source and are kept apart here. Marks after values point to notes of the source that are not given here.

For data set [1], the system named is canine model of septic shock (Pseudomonas aeruginosa). The following applies: for Arterial pH / LD (lactate dehydrogenase) / Oxygen delivery: mean ± SD. How it is done: We used a bacteremic model of Pseudomonas aeruginosa in this study as previously described (20). We used this particular model, since we wanted to measure mitochondrial function and LA under conditions of an acute and intensive inflammatory response analogous to that which would occur in a severe bout of SS in the clinical condition. […] Over the course of the experiment, we studied the animals (18 to 26 kg) while anesthetized with sufentanil citrate (0.05-0.3 ug/kg/min) and midazolam (5 ug/kg/min), and while being ventilated receiving 100% oxygen to maintain arterial around PO2 ˜400 mmHg. We adjusted the ventilator rate over the course of the study to attenuate the development of the metabolic acidosis that is usually observed (20).
To assess hemodynamics in this model, we inserted vascular catheters under sterile conditions as previously described (20), after which we connected the catheters to pressure transducers (Cobe, Argon) that were referenced relative to the left atrium and connected to a chart recorder (Astro-Med, W Warwick, R.I.). To measure MAP, we inserted a polyethylene catheter into the right femoral artery, while to measure pulmonary vascular pressures, we inserted a Swanz-Ganz catheter (Edwards Lifesciences, Irvine, Calif.) by percutaneous techniques through the right jugular vein. From the Swanz-Ganz catheter, we obtained measurements of pulmonary arterial pressure (Ppa), wedge pressure (Pwp), and right atrial pressure (Rap), as well as determinations of thermodilution cardiac output (CO).
From the hemodynamic measurements, we calculated SV from CO/heart rates (HR), stroke work (SW) from [SV*(MAP−Pwp)], and systemic vascular resistance (SVR) from [(MAP-Rap)/CO)*80]. We also normalized measurements of SV, SW, and CO and organ oxygen delivery (DO2) to body weight. We calculated DO2 from CO×Hb×1.34 ml oxygen per gram of Hb, since Hb was 100% saturated at a PO2 of ˜400 mmHg. From the arterial catheter and distal port of the Swanz-Ganz catheter, we also took arterial and mixed venous blood samples, respectively, for analyses of PO2, PCO2, and pH.
In addition, we placed another polyethylene catheter into the left jugular vein, also by percutaneous techniques, for infusion of the bacteria and intravenous fluids and for obtaining blood chemistry and hematological samples. Since the baseline Pwp found in this model usually averages≈8-10 mmHg, we infused normal saline solution as necessary to maintain Pwp relatively constant over the duration of this study. […] The Clinical Chemistry Laboratory at the Health Sciences Centre performed the clinical laboratory tests.
We included 5 groups of animals in the initial phase of this study. These groups included a septic control group, a non-septic control group, a norepinephrine (NE) septic group, a gentisic acid sodium salt (GSS) septic group, and a GSS non-septic group. In each group, we made baseline measurements of hemodynamics and blood parameters after approximately 1 hr period of stability. In the septic groups, after initiation of the bacterial infusion, we repeated the measurements in the septic shock condition. […] In the septic control group, after the SS condition, we started an infusion of 5% dextrose in water (D5W) at approximately 40 ml/hr for the remainder of the study, since D5W was the diluent for both the NE and GSS treatments.
In all groups, we then made posttreatment measurements at 3 hrs and 5 hrs after completion of the septic shock/sham-shock determinations.
In this supplemental study, we examined the effect of gallic acid on hemodynamics and mitochondrial function in our Pseudomonas aeruginosa model in a manner identical to that described for GSS treatment.

The subject of another data set is hepatic mitochondria. The experiment in a line: Oxygen consumption rates of hepatic mitochondria harvested after in vivo treatment (Seahorse XF24). Details: species or system dog. The following applies: treated septic dogs; FCCP 4 uM. How it is done: After completion of the in-vivo measurements, we administered sodium pentobarbital (110 mg/kg) to euthanize the animal. In a subset of animals of each group, we immediately harvested a piece of liver and isolated the mitochondria as described by Schnaitman and Greenawalt (23). Briefly, we minced the extracted liver in mitochondrial isolation buffer (MSHE) that includes 70 mM sucrose, 210 mM mannitol, 5 mM HEPES, 1 mM EGTA, and fatty acid free bovine serum albumin (BSA). We then disrupted the tissue using a drill-driven glass/Teflon dounce homogenizer. We centrifuged the homogenate three times, after which we re-suspended the final pellet in a minimal volume of MSHE+BSA and determined protein (mg/ml). We diluted the mitochondrial preparation in cold mitochondrial assay solution (MAS) that contained 70 mM sucrose, 220 mM mannitol, 10 mM KH2PO4, 5 mM MgCl2, 2 mM HEPES, 1 mM EGTA, and BSA for plating directly onto the custom Seahorse 24-well culture dish (˜20 ug mitochondrial protein/50 ul per well; see further below). After centrifugation of the plate and addition of appropriate substrates, we viewed the mitochondria under a microscope to ensure consistent adherence to the well. We then transferred the plate to the XF24 Analyzer for initiation of the protocol as described below (17).
To examine mitochondrial function in this model, we used a novel new technology that is capable of measuring dynamic changes in mitochondrial function, not easily attainable by other technologies (17). The Seahorse® XF24 extracellular flux analyser (Seahorse Bioscience, MA, USA) refines the technology by which mitochondrial oxygen consumption can be measured. This technology uses a piston to reversibly enclose a small volume (7 ul) above the mitochondria that can monitor oxygen uptake in that volume for 2-5 min, then raises the piston, allowing the bulk incubation medium (˜1 ml) to re-equilibrate. The ability to make up to 4 additions during the experiment allows mitochondrial respiration to be measured under various metabolic conditions. This piece of equipment has never been used to measure mitochondrial function in SS.
In this protocol, we sequentially measured mitochondrial function under various metabolic conditions (17). To obtain basal OCR, we first added a substrate to the preparation that contained pyruvate (10 mM) and malate (2 mM). We then added ADP (adenosine-diphosphate; 4 mM) that allows ATP synthase to function, producing an increase in OCR (coupled OCR) that is termed “state3ADP”. When the ATP/ADP ratio approaches equilibrium, pmf rises, after which proton reentry through the synthase stops and respiration slows. We terminated coupled respiration (i.e. state3ADP) by the addition of the ATP synthase inhibitor oligomycin (2.0 uM) in which we achieved “stateoligomycin” where ATP recycling cannot contribute and there is a stable decrease in OCR. We then added the protonophore, FCCP (4 uM; carbonyl cyanide p-trifluoromethoxy-phenylhydrazone). FCCP leads to uncoupled respiration in which we previously titrated the concentration of FCCP to yield a maximal effect. In mitochondria in which ATP synthase activity is a limiting factor, uncoupled respiration may be greater than coupled respiration. […] We finally added rotenone (R; 2 uM) and antimycin A (AA; 2 uM) which are inhibitors of the electron transport chain (ETC) complexes, I and III, respectively. When added to the mitochondrial preparation, these inhibitors produce a marked decline in mitochondrial respiration since the electron transport chain is inhibited.
With each treatment group, we obtained measurements of basal OCR, coupled OCR (i.e. state3ADP), and maximal OCR. In addition, we calculated coupled and uncoupled respiratory control ratios from state3ADP/stateoligomycin and uncoupled respiration/state FCCP/stateoligomycin, respectively. […]

The subject of data set [2] is mitochondrial complex IV (cytochrome c oxidase). The experiment in a line: Enzymatic activity of hepatic mitochondrial complex IV. Type of data set: biochemical, dog. The following applies: hepatic mitochondria of treated septic dogs; mean ± SD. An excerpt: As part of our assessment of mitochondrial function, we also measured the enzymatic activity of hepatic mitochondrial complex IV based on the rationale of Levy et al (10), since these investigators considered that dysfunction of complex IV was the most important determinant of abnormal mitochondrial function in SS. We determined complex IV activity spectrophotometrically by a temperature-controlled Ultrospec™ 2100 ultraviolet-visible spectrophotometer (Biopharmacia Biotech, Uppsala, Sweden) (17). Complex IV activity was measured at 25° C. by monitoring the absorbance decrease of reduced cytochrome c at 550 nm.

Setting [3] is: septic dogs, 3 hrs posttreatment.
Where [4] appears, read: septic dogs, 5 hrs posttreatment.
[5] abbreviates: septic dogs, baseline (before bacteria/treatment).
The mark [6] stands for this setting: septic dogs, septic shock (before treatment).

For `NC[C@H](O)c1ccc(O)c(O)c1` [NE, norepinephrine], in data set [1] (dog, in vivo), the “effect of treatment on troponin (index of myocardial injury)” value is “increased in the NE septic group”. In data set [1] (septic dogs, 3 hr and 5 hr vs septic control group, did not reach statistical significance), the “effect of treatment on stroke work index” value is “an increase in stroke work index”. Moreover, in data set [1] (septic dogs, 3 hrs and 5 hrs posttreatment vs septic shock condition), the “effect of treatment on systemic vascular resistance (SVR)” value is recorded as “increased SVR back to the baseline value; also recorded: an increase in SVR”. Moreover, the “Arterial pH” value in data set [1] (setting [3]) was 7.20 ± .04*^+$; in data set [1] (setting [4]) it was 7.16 ± 0.06*^+$; in data set [1] (setting [5]) it was 7.38 ± .05; in data set [1] (setting [6]), 7.26 ± .04*^+$. Besides, the “LD (lactate dehydrogenase)” value in data set [1] (setting [3]) is 315 ± 113*^+$ IU; in data set [1] (setting [4]) it was 409 ± 167*^+$^ IU; in data set [1] (setting [5]), 43 ± 23 IU; in data set [1] (setting [6]) it was 177 ± 97*^+ IU. Also, the Oxygen delivery was determined as 29 ± 8 mL/min/kg in data set [1] (setting [3]); 28 ± 10 mL/min/kg in data set [1] (setting [4]); 20 ± 3 mL/min/kg in data set [1] (setting [5]); 26 ± 11 mL/min/kg in data set [1] (septic dogs, septic shock condition (before treatment)). Also, the “effect of treatment on mean arterial pressure (MAP)” value in data set [1] (septic dogs, infusion started at septic shock condition, 3 hr and 5 hr post treatment) was “increased MAP back to the baseline value; also recorded: return in MAP to baseline”. Besides, in data set [1] (septic dogs, over the course of the study), the “effect of treatment on blood lactate concentration” value is “serum lactate increased; also recorded: significantly increased”. Further, the “effect of treatment on oxygen delivery (DO2)” value in data set [1] (septic dogs, vs septic control group and gentisic septic group) was “increase in DO2”. Besides, in the data set on hepatic mitochondria, the “maximal (uncoupled) respiration (OCR after FCCP) of hepatic mitochondria” value is on record as “restore the increase in OCR in response to FCCP”. For the same molecule, the “enzymatic activity of mitochondrial complex IV” value in data set [2] is on record as 3.89±0.33 umol/min/mg protein.
